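Protocol summary: plate cells (96-well), add compound at 5 concentrations, incubate 48 h, interpolate endpoints linearly. GI50 marks 50% less growth.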 Active and inactive are the calls of the source. Cut-off read from the data, not from the text of the source: active = GI50 up to about 1.1 µM and inactive = higher.
How the values were obtained:
Experiment in all cases: NCI-60 cell line screen, 48 h
SN12C = system: SN12C
IGROV-1 = system: IGROV-1
K562 = system: K562
HOP-62 = system: HOP-62
RPMI-8226 = system: RPMI-8226
CCRF-CEM = system: CCRF-CEM
OVCAR-3 = system: OVCAR-3
HL-60 = system: HL-60
SK-OV-3 = system: SK-OV-3
HCT-15 = system: HCT-15
NCI-H522 = system: NCI-H522
SK-MEL-28 = system: SK-MEL-28
U-251 = system: U-251
COLO 205 = system: COLO 205
SR = system: SR

Compound	GI50 (SN12C)	GI50 (IGROV-1)	GI50 (K562)	GI50 (HOP-62)	GI50 (RPMI-8226)	GI50 (CCRF-CEM)	GI50 (OVCAR-3)	GI50 (HL-60)	GI50 (SK-OV-3)	GI50 (HCT-15)	GI50 (NCI-H522)	GI50 (SK-MEL-28)	GI50 (U-251)	GI50 (COLO 205)	GI50 (SR)
O=C1CC2CCCCC2=C1O (stereo unspecified)	> 100 µM (inactive)	> 100 µM (inactive)	> 100 µM (inactive)	> 100 µM (inactive)	> 100 µM (inactive)	> 100 µM (inactive)	> 100 µM (inactive)	> 100 µM (inactive)	> 100 µM (inactive)	> 100 µM	> 100 µM (inactive)	> 100 µM (inactive)	> 100 µM (inactive)	> 100 µM (inactive)	–
Cc1cc2c(cc1C)[n+]([O-])c(C(=O)/C=C/c1ccccc1Cl)c(C)[n+]2[O-]	33 µM (inactive)	20.1 µM (inactive)	37.9 µM (inactive)	24.6 µM (inactive)	45 µM (inactive)	37.2 µM (inactive)	28.7 µM (inactive)	29.9 µM (inactive)	36 µM (inactive)	22.5 µM	12.7 µM (inactive)	26.9 µM (inactive)	28.2 µM (inactive)	20.7 µM (inactive)	–
O=[N+]([O-])c1ccccc1S(=O)(=O)c1ccccc1	> 100 µM (inactive)	> 100 µM (inactive)	> 100 µM (inactive)	> 100 µM (inactive)	> 100 µM (inactive)	> 100 µM (inactive)	> 100 µM (inactive)	31.2 µM (inactive)	> 100 µM (inactive)	> 100 µM	–	> 100 µM (inactive)	> 100 µM (inactive)	> 100 µM (inactive)	> 100 µM (inactive)
Cc1ccc(NC(=O)CC2Sc3ccccc3NC2=O)cc1C (stereo unspecified)	> 100 µM (inactive)	> 100 µM (inactive)	28.2 µM (inactive)	> 100 µM (inactive)	> 100 µM (inactive)	18.7 µM (inactive)	70.8 µM (inactive)	24.5 µM (inactive)	> 100 µM (inactive)	85.7 µM	> 100 µM (inactive)	> 100 µM (inactive)	79.6 µM (inactive)	65.2 µM (inactive)	> 100 µM (inactive)
Cc1ccc(S(=O)(=O)OC2CSSCC2OS(=O)(=O)c2ccc(C)cc2)cc1 (stereo unspecified)	11.3 µM (inactive)	16.8 µM (inactive)	14.9 µM (inactive)	20.3 µM (inactive)	13.2 µM (inactive)	4.35 µM (inactive)	13.3 µM (inactive)	2.62 µM (inactive)	20.5 µM (inactive)	10.2 µM	10.9 µM (inactive)	16.6 µM (inactive)	14 µM (inactive)	13.7 µM (inactive)	7.69 µM (inactive)
COc1cc(C2C(Cl)C(=O)N2n2cnc3ccccc3c2=O)cc(OC)c1OC (stereo unspecified)	> 100 µM (inactive)	> 100 µM (inactive)	20.3 µM (inactive)	> 100 µM (inactive)	77.8 µM (inactive)	82 µM (inactive)	> 100 µM (inactive)	28.2 µM (inactive)	> 100 µM (inactive)	63.7 µM	> 100 µM (inactive)	> 100 µM (inactive)	> 100 µM (inactive)	> 100 µM (inactive)	31.2 µM (inactive)
O=S1(=O)OCCOS(=O)(=O)C1Br	> 100 µM (inactive)	> 100 µM (inactive)	> 100 µM (inactive)	> 100 µM (inactive)	> 100 µM (inactive)	> 100 µM (inactive)	> 100 µM (inactive)	> 100 µM (inactive)	> 100 µM (inactive)	–	> 100 µM (inactive)	> 100 µM (inactive)	–	> 100 µM (inactive)	> 100 µM (inactive)
CC(=O)Nc1ccc(-c2nnc(SCC(=O)Nc3cccc([N+](=O)[O-])c3)o2)cc1	16.1 µM (inactive)	4.11 µM (inactive)	10.3 µM (inactive)	22.9 µM (inactive)	20.7 µM (inactive)	9.1 µM (inactive)	13.5 µM (inactive)	10.6 µM (inactive)	11.1 µM (inactive)	15.4 µM	10.1 µM (inactive)	16.5 µM (inactive)	14.6 µM (inactive)	19 µM (inactive)	2.87 µM (inactive)
OC(c1ccccc1)C1CC2C=CC1C2 (stereo unspecified)	> 100 µM (inactive)	> 100 µM (inactive)	> 100 µM (inactive)	> 100 µM (inactive)	> 100 µM (inactive)	> 100 µM (inactive)	> 100 µM (inactive)	> 100 µM (inactive)	> 100 µM (inactive)	> 100 µM	> 100 µM (inactive)	> 100 µM (inactive)	> 100 µM (inactive)	> 100 µM (inactive)	–
COC(=O)CCC1(NS(=O)(=O)c2ccc(C)cc2)CCC(C(C)(C)C)CC1 (stereo unspecified)	13.7 µM (inactive)	14.6 µM (inactive)	4.91 µM (inactive)	17.3 µM (inactive)	4.08 µM (inactive)	9.89 µM (inactive)	10.3 µM (inactive)	3 µM (inactive)	40.6 µM (inactive)	> 10 µM	5.16 µM (inactive)	11.6 µM (inactive)	14.3 µM (inactive)	13.4 µM (inactive)	–
OC12c3ccccc3C1CCCCCCCCCC21OCCCO1 (stereo unspecified)	> 100 µM (inactive)	> 100 µM (inactive)	5.09 µM (inactive)	> 100 µM (inactive)	> 100 µM (inactive)	> 100 µM (inactive)	> 100 µM (inactive)	4.15 µM (inactive)	> 100 µM (inactive)	5.15 µM	> 100 µM (inactive)	> 100 µM (inactive)	–	> 100 µM (inactive)	4.73 µM (inactive)
OC(CCNC12CC3CC(CC(C3)C1)C2)c1ccccc1 (stereo unspecified)	> 100 µM (inactive)	72.1 µM (inactive)	–	> 100 µM (inactive)	–	60.5 µM (inactive)	> 100 µM (inactive)	> 100 µM (inactive)	> 100 µM (inactive)	> 100 µM	> 100 µM (inactive)	> 100 µM (inactive)	> 100 µM (inactive)	51.8 µM (inactive)	–
Cc1ccc(S(=O)(=O)N/N=c2\c(C)c(C3=NS(=O)(=O)c4cc(S(N)(=O)=O)c(Cl)cc4N3)oc3c(Cl)cc(Cl)cc23)cc1	> 100 µM (inactive)	> 100 µM (inactive)	61.1 µM (inactive)	> 100 µM (inactive)	36.9 µM (inactive)	32.2 µM (inactive)	> 100 µM (inactive)	> 100 µM (inactive)	> 100 µM (inactive)	39.4 µM	–	> 100 µM (inactive)	23.5 µM (inactive)	22.3 µM (inactive)	> 100 µM (inactive)
C/C=C/CC(C)[C@@H](O)[C@H](NC)C(=O)O (stereo partly specified)	> 100 µM (inactive)	> 100 µM (inactive)	> 100 µM (inactive)	> 100 µM (inactive)	> 100 µM (inactive)	> 100 µM (inactive)	> 100 µM (inactive)	> 100 µM (inactive)	> 100 µM (inactive)	> 100 µM	> 100 µM (inactive)	> 100 µM (inactive)	> 100 µM (inactive)	> 100 µM (inactive)	–
NC(=S)Nc1nnc(-c2ccc(-c3nnc(NC(N)=S)o3)cc2)o1	> 100 µM (inactive)	> 100 µM (inactive)	> 100 µM (inactive)	> 100 µM (inactive)	> 100 µM (inactive)	> 100 µM (inactive)	> 100 µM (inactive)	> 100 µM (inactive)	> 100 µM (inactive)	> 100 µM	> 100 µM (inactive)	> 100 µM (inactive)	> 100 µM (inactive)	> 100 µM (inactive)	–
N=C(N)SCCc1cn2ccccc2n1	> 100 µM (inactive)	–	> 100 µM (inactive)	> 100 µM (inactive)	> 100 µM (inactive)	> 100 µM (inactive)	> 100 µM (inactive)	> 100 µM (inactive)	–	> 100 µM	> 100 µM (inactive)	> 100 µM (inactive)	> 100 µM (inactive)	> 100 µM (inactive)	> 100 µM (inactive)
C#CC1(O)CC(c2ccccc2)N(C)C(c2ccccc2)C1 (stereo unspecified)	> 100 µM (inactive)	> 100 µM (inactive)	78.9 µM (inactive)	> 100 µM (inactive)	–	> 100 µM (inactive)	> 100 µM (inactive)	> 100 µM (inactive)	> 100 µM (inactive)	> 100 µM	> 100 µM (inactive)	> 100 µM (inactive)	> 100 µM (inactive)	> 100 µM (inactive)	–
CCCCCCCC(=O)OC[C@H](C[As](=O)(O)O)OC(=O)CCCCCCC	10.1 µM (inactive)	3.57 µM (inactive)	12.7 µM (inactive)	18.7 µM (inactive)	5.36 µM (inactive)	1.95 µM (inactive)	–	3.97 µM (inactive)	15 µM (inactive)	10.5 µM	1.42 µM (inactive)	13.3 µM (inactive)	4.95 µM (inactive)	15.1 µM (inactive)	3.05 µM (inactive)
COc1ccc(OC)c(/C=C(/C#N)c2ccccc2)c1	32.6 µM (inactive)	31.7 µM (inactive)	3.15 µM (inactive)	40.3 µM (inactive)	13.4 µM (inactive)	17.5 µM (inactive)	28.2 µM (inactive)	3.95 µM (inactive)	50 µM (inactive)	18.9 µM	14 µM (inactive)	23.4 µM (inactive)	31.8 µM (inactive)	20.5 µM (inactive)	–
O=C(N/C(=C\c1ccc([N+](=O)[O-])cc1)c1nc2ccccc2[nH]1)c1ccccc1	> 100 µM (inactive)	> 100 µM (inactive)	> 100 µM (inactive)	> 100 µM (inactive)	> 100 µM (inactive)	–	–	70.6 µM (inactive)	–	45.5 µM	64.7 µM (inactive)	> 100 µM (inactive)	63.7 µM (inactive)	> 100 µM (inactive)	–

— ChEMBL document CHEMBL1201862, “PubChem BioAssay data set” (2004)
